# Test results published in patent US10449216B2, “Modulating drug effects against metabotropic glutamate receptor with extracellular calcium” (GEORGIA STATE UNIVERSITY RESEARCH FOUNDATION, INC., priority 2013, dated 2019).
# Entries after “also recorded” stand apart in the source; their conditions may differ. Like-named read-outs stand apart in the source and are kept apart here.
# Assays:
# mGluR5 [1] = target: T1, mGluR5 (Rattus norvegicus, UniProt P31424); settings: mGluR5, Sp. Rn; cited from earlier work
# T1 sequence (P31424 21-1203): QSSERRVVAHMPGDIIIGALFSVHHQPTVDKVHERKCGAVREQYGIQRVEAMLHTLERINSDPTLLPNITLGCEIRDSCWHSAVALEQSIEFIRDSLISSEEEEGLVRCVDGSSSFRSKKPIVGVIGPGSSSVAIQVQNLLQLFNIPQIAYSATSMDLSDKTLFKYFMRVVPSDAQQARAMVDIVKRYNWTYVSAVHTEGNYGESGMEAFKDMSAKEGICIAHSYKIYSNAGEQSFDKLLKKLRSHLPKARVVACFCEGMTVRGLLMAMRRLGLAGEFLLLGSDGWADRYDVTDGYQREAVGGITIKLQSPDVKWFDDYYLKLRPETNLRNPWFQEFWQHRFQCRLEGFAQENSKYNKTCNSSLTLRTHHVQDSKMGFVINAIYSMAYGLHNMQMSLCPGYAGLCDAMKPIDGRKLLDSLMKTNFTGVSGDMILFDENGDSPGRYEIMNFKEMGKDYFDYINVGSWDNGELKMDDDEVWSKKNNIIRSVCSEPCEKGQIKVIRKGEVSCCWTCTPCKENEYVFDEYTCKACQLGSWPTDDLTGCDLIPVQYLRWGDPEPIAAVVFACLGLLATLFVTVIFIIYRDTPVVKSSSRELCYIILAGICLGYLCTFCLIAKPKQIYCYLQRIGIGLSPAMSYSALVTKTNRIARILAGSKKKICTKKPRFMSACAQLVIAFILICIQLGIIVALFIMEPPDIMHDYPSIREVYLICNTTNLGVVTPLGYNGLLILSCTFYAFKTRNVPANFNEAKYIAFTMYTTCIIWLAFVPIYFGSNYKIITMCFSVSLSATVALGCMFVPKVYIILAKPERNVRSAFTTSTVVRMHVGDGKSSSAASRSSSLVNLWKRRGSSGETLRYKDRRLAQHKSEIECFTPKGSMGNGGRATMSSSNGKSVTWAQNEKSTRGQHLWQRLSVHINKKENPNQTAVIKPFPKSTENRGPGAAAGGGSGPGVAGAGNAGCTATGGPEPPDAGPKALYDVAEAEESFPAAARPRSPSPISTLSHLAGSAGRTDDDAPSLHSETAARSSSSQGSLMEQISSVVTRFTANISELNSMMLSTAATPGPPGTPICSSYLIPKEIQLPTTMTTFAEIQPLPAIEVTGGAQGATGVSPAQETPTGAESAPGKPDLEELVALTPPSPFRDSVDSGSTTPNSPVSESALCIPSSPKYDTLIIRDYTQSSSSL
# mGluR1 [2] = target: mGluR1 (Rattus norvegicus, UniProt P23385); settings: mGluR1, Sp. Rn; cited from earlier work
# Chain of mGluR1 (Rattus norvegicus, UniProt P23385) (P23385 19-1199): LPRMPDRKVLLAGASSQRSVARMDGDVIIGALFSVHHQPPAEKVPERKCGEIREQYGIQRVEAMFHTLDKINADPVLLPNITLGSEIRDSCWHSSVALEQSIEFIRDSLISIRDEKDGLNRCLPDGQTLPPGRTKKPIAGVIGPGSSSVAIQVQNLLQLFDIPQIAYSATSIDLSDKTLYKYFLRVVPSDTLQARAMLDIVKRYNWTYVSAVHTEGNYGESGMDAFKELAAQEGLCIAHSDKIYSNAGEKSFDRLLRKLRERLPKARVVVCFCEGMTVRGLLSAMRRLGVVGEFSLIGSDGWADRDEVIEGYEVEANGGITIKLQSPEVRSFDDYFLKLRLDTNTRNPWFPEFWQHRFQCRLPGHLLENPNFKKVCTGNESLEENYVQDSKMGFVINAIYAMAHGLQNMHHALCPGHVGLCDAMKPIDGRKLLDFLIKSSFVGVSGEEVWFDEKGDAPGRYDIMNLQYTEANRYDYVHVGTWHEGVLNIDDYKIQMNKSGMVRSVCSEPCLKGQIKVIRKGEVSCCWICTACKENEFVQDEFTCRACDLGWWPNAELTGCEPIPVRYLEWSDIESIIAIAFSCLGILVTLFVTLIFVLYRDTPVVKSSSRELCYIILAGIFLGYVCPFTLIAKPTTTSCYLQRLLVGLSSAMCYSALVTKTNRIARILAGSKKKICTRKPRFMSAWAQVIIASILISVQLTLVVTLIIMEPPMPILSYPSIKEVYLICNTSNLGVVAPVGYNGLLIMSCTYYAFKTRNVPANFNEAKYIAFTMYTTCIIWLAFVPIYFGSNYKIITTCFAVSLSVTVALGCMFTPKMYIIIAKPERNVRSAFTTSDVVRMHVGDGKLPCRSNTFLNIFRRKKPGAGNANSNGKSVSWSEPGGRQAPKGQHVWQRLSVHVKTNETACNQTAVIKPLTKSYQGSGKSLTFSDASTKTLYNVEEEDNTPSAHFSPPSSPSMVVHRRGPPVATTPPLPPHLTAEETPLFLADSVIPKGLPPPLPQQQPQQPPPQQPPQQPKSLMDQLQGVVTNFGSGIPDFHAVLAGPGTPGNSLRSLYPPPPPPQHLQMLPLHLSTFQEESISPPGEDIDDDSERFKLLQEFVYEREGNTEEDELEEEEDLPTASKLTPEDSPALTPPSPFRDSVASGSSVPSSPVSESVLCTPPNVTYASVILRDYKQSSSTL
# mGluR1 [3] = target: mGluR1 (Homo sapiens, UniProt Q13255); settings: mGluR1, Sp. Hs; cited from earlier work
# Chain of mGluR1 (Homo sapiens, UniProt Q13255) (Q13255 19-1194): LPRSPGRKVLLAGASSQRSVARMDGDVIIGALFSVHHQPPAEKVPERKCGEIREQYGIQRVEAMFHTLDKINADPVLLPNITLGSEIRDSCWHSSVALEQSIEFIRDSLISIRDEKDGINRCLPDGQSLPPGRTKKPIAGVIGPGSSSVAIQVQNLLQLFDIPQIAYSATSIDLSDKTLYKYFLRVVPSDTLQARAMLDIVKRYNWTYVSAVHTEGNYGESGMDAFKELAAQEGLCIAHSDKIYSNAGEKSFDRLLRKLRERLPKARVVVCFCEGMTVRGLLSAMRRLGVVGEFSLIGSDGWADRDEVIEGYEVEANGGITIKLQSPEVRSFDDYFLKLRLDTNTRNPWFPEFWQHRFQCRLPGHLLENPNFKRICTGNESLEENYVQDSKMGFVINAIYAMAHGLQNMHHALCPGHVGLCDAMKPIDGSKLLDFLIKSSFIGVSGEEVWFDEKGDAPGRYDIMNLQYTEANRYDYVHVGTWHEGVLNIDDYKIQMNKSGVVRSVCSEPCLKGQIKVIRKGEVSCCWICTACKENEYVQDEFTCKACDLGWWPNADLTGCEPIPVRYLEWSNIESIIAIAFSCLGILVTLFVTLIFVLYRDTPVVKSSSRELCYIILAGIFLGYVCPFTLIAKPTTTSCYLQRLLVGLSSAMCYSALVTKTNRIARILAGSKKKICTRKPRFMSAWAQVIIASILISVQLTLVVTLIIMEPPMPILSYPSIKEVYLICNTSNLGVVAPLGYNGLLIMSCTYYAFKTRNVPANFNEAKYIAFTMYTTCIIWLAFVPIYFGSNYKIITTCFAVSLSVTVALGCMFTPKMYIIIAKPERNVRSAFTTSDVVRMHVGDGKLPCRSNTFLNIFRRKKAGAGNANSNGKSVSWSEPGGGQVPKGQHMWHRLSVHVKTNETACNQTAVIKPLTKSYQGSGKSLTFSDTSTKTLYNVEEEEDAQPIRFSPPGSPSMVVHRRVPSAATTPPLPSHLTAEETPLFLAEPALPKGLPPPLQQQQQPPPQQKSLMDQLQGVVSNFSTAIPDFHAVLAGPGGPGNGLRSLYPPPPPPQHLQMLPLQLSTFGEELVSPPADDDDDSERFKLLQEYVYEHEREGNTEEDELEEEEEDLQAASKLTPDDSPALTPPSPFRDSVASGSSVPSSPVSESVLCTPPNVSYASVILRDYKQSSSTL
# WT mGluR1α = target: T2, WT mGluR1α (Rattus norvegicus, UniProt P23385); assay: Single cell Fura-2 [Ca^2+]i response in HEK293 cells transiently transfected with WT mGluR1α; type: cell-based; settings: for Max. Res. to Ro 67-4853: normalized to maximal response of WT mGluR1α to L-Glu; for EC50: read-out: EC50 of Ro 67-4853
# T2 construct: expressed in transfected cells; host or cells: HEK293
# T2 sequence (P23385 19-1199): as the sequence (P23385 19-1199) above
# Method: The methods for measuring [Ca^2+]i responses were as described above. In the presence of (s)-MCPG, the cells were incubated with 0.5 mM (s)-MCPG in a saline buffer for 30 more minutes after Fura-2 loading.
# Fura-2AM was used for monitoring [Ca^2+]i in real time as described above. […] Cells loaded with Fura-2AM were mounted onto a chamber perfused with saline buffer.
# mGluR5 [4] = target: mGluR5 (Homo sapiens, UniProt P41594); settings: mGluR5, Sp. Hs; cited from earlier work
# Chain of mGluR5 (Homo sapiens, UniProt P41594) (P41594 21-1212): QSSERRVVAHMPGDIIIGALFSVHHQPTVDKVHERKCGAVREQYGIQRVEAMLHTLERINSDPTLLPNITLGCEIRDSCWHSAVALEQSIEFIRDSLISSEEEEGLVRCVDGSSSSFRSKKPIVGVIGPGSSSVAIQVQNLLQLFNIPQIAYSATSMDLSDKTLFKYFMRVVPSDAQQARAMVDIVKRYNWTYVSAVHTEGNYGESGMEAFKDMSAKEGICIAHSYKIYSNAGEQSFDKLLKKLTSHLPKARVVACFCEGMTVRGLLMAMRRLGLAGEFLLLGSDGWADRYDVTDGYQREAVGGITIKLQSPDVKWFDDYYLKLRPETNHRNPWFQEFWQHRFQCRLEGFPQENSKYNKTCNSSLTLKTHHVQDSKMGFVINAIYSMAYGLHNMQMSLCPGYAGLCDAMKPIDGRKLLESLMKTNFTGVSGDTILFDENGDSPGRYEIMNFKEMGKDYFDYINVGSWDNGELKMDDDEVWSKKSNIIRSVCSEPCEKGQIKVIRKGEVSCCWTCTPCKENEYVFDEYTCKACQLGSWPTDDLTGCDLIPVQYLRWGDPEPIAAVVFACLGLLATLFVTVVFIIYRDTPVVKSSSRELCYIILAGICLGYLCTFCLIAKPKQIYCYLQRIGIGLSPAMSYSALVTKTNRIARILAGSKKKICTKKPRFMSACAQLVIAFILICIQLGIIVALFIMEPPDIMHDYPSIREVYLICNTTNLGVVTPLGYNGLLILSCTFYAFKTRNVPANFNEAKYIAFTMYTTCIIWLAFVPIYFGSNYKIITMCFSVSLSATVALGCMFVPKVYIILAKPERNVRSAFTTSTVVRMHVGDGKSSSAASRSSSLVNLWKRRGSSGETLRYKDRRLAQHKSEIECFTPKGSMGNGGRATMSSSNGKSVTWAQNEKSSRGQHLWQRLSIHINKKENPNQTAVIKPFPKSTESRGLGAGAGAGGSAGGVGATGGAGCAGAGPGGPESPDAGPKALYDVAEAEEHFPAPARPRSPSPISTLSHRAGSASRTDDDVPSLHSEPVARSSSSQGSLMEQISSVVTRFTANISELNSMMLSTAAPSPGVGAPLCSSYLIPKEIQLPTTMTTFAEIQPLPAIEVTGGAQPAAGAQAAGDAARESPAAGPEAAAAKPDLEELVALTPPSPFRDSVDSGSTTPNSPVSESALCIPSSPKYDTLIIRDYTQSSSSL
# mGluR5 [5] = target: T1, mGluR5; assay: Intracellular Ca^2+ response/oscillation in mGluR5 transfected HEK293 cells; type: cell-based; parameters: expressed in transfected cells; host or cells: HEK293; settings: for Percentage of cells with oscillation as a response to L-Glu: low concentration of L-Glu
# Method: HEK293 cells were fed on a Dulbecco's Modified Eagle Medium (DMEM) and 10% fetal bovine serum (Invitrogen) and cultured at 37° C. in a humidified incubator with 5% CO2. One day before transfection, HEK293 cells were grown on 22×44 mm coverslips and then were transfected with mGluR5 plasmid (received as a gift from Dr. Randy Hall, Emory University, Atlanta, Ga.) with the aid of lipofectamine 2000 (Invitrogen). mGluR5 transfected HEK293 cells were grown for 48 hours and then loaded with 4 µM Fura-2 AM in loading buffer containing 10 mM HEPES (pH 7.4), 140 mM NaCl, 5 mM KCl, 0.55 mM MgCl2 for 30 minutes at 37° C. The coverslips were then mounted in a bathing chamber on the stage of a fluorescence microscope. […] The ratio of fluorescence emitted at 510 nm resulting from excitation at 340 or 380 nm was analyzed to obtain the [Ca^2+]i response as a function of changes in [Ca^2+]o.
# HEK293 cells were cultured and transfected as described above. Intracellular Ca^2+ concentration was recorded using the method as described previously. […]
# mGluR1α D318I = target: T3, mGluR1α D318I (Rattus norvegicus, UniProt P23385, D318I); assay: [^3H]-L-Quis binding to membranes of HEK293 cells expressing D318I; settings: hypotonic buffer
# T3 construct: expressed in transfected cells; host or cells: HEK293
# T3 sequence (P23385 19-1199 D318I): as the sequence (P23385 19-1199) above, with D300I counted along it
# Method: HEK293 cells transiently transfected with wild type mGluR1α or its mutants were maintained in a 5% CO2 37° C. incubator for an additional 48 hours as before. Cells were then collected in ice cold hypotonic buffer (20 mM HEPES, 100 mM NaCl, 5 mM MgCl2, 5 mM KCl, 0.5 mM EDTA, and 1% protease inhibitors at pH 7.0-7.5). The cell pellet was washed twice more using hypotonic buffer to remove the L-Glu in the cellular debris. The crude membrane protein (100 μg) was mixed with 30 nM [^3H]-L-Quis in 100 μL of hypotonic buffer. The nonspecific binding was determined by measuring bound [^3H]-L-Quis in the presence of 200 μM L-Glu. […] The reaction mixtures were incubated on ice for at least 1 hour, and the membrane-bound [^3H]-L-Quis was captured on filter paper using a Brandel cell harvester under vacuum. The filter paper was then transferred to scintillation fluid, and [^3H]-L-Quis was detected using a Beckman LS 6500 multi-purpose scintillation counter.
# mGluR1α E325I = target: T4, mGluR1α E325I (Rattus norvegicus, UniProt P23385, E325I); assay: Single cell Fura-2 [Ca^2+]i response in HEK293 cells transfected with mGluR1α variant E325I; type: cell-based; settings: HEK293, read-out: Maximal Response to L-Quis, E325I, normalized to maximal response of WT mGluR1α to L-Glu
# T4 construct: expressed in transfected cells; host or cells: HEK293
# T4 sequence (P23385 19-1199 E325I): as the sequence (P23385 19-1199) above, with E307I counted along it
# mGluR1α D322I = target: T5, mGluR1α D322I (Rattus norvegicus, UniProt P23385, D322I); assay: Single cell Fura-2 [Ca^2+]i response in HEK293 cells transfected with mGluR1α variant D322I; type: cell-based; settings: HEK293, read-out: Maximal Response to L-Quis, D322I, normalized to maximal response of WT mGluR1α to L-Glu
# T5 construct: expressed in transfected cells; host or cells: HEK293
# T5 sequence (P23385 19-1199 D322I): as the sequence (P23385 19-1199) above, with D304I counted along it
smiles,measurement,setting,value
"NC(C(=O)O)c1cc(O)cc(O)c1 (stereo not shown) [3,5-DHPG]",Affinity (pIC50),mGluR5 [1],5.4 pIC50
same,Affinity (pKi),mGluR1 [2],5.8 pKi
"CCCOC(=O)c1[nH]c(C)c(C(=O)OC(C)C(C)(C)C)c1C (stereo not shown) [3,5-dimethyl PPP]",Affinity (pIC50),mGluR1 [2],7.8 pIC50
Cc1cc(C(=O)O)sc1C(N)C(=O)O (stereo not shown) [3-MATIDA],Affinity (pIC50),mGluR1 [2],5.2 pIC50
"N[C@@]1(C(=O)O)CC[C@@H](C(=O)O)C1 [(1S,3R)-ACPD]",Affinity (pIC50),mGluR5 [1],5.7 pIC50
N[C@H](C(=O)O)c1cccc(O)c1 [(S)-3HPG],Affinity (pIC50),mGluR5 [1],5 pIC50
same,Affinity (pIC50),mGluR1 [2],4.9 pIC50
N[C@H](C(=O)O)c1ccc(C(=O)O)c(O)c1 [(S)-4C3HPG],Affinity (pKi),mGluR1 [3],5.8-6.0 pKi
same,Affinity (pIC50),mGluR5 [1],5.6 pIC50
N[C@H](C(=O)O)c1ccc(C(=O)O)cc1 [(S)-4CPG],Affinity (pIC50),mGluR5 [1],4.6 pIC50
same,Affinity (pKi),mGluR1 [2],5.4 pKi
N[C@H](C(=O)O)C12CC(C(=O)O)(C1)C2 [(S)-(+)-CBPG],Affinity (pIC50),mGluR1 [2],4.2 pIC50
N[C@H](C(=O)O)C12CC(c3nn[nH]n3)(C1)C2 [(S)-TBPG],Affinity (pIC50),mGluR1 [2],4.2 pIC50
"C[C@@](N)(C(=O)O)c1ccc(C(=O)O)cc1 [(s)-MCPG, (S)-α-Methyl-4-carboxyphenylglycine]",Inhibition of activation of mGluR1α by L-Glu,"WT mGluR1α; 1.5 mM (s)-MCPG, 5 μM L-Glu",entirely blocks
same,Inhibition of responsiveness of mGluR1α to [Ca^2+]o,"WT mGluR1α; 2.0 mM MCPG, 5 mM [Ca^2+]o",does not completely inhibit
same,Affinity (pIC50),mGluR5 [1],3.7 pIC50
same,Affinity (pKi),mGluR1 [2],3.8 pKi
CN(C)c1ccnc2sc3c(=O)n(N4CCCCCC4)cnc3c12 [A841720],Affinity (pIC50),mGluR1 [3],8 pIC50
CN(C)c1nc(N)c(C(=O)Nc2ccccn2)nc1Cl [ACDPP],Affinity (pIC50),mGluR5 [4],6.9 pIC50
O=C(c1ccc(F)cc1)N1CCC[C@H](c2nc(-c3ccc(F)cc3)no2)C1 [ADX-47273],Affinity (pIC50),mGluR5 [1],6.5 pIC50
NC1(C(=O)O)CCc2cc(C(=O)O)ccc21 (stereo not shown) [AIDA],Affinity (pA2),mGluR1 [3],4.2 pA2
same,Affinity (pKi),mGluR1 [2],4 pKi
C=C1C[C@@H]2COC(=O)[C@]2(Cc2ccc3ccccc3c2)C1 [BAY 367620],Affinity (pIC50),mGluR1 [2],6.8-8.0 pIC50
COc1cc(-c2nc3ccccc3o2)ccc1CC#N [BOMA],Affinity (pKi),mGluR5 [4],8.5 pKi
NC(C(=O)O)c1cc(O)ccc1Cl (stereo not shown) [CHPG],Affinity (pIC50),mGluR5 [4],3.4 pIC50
N[C@H](C(=O)O)C1[C@@H](C(=O)O)[C@@H]1C(=O)O (stereo partly shown) [DCG-IV],Affinity (pIC50),mGluR5 [1],4.7 pIC50
same,Affinity (pKi),mGluR1 [2],4.1 pKi
Fc1cccc(/C=N/N=C/c2cccc(F)c2)c1 [DFB],Affinity (pIC50),mGluR5 [4],5.6-8.5 pIC50
CCCOC(=O)c1[nH]c(C)c(C(=O)O[C@@H](C)C(C)(C)C)c1C [DM-PPP],Affinity (pIC50),mGluR1 [2],7.8 pIC50
CCn1c(C)nc(N2CCc3ccccc3CC2)c(C#N)c1=O [EM-TBPC],Affinity (pIC50),mGluR1 [2],6.9 pIC50
N[C@H](C(=O)O)[C@H]1C[C@@H]1C(=O)O [L-CCG-I],Affinity (pIC50),mGluR5 [1],5.8 pIC50
same,Affinity (pKi),mGluR1 [2],5.6 pKi
"N[C@@H](CCC(=O)O)C(=O)O [L-Glu, L-glutamic acid]",Percentage of cells with oscillation as a response to L-Glu,mGluR5 [5]; 0.5 or 1.8 mM extracellular Ca^2+,more than 50%
same,Percentage of cells with oscillation as a response to L-Glu,mGluR5 [5]; without extracellular Ca^2+,less than 10%
"N[C@@H](Cn1oc(=O)[nH]c1=O)C(=O)O [L-Quis, L-Quisqualate]",[^3H]-L-Quis binding to the mutant,mGluR1α D318I,eliminates L-Quis-binding
same,Emax,"WT mGluR1α; HEK293, read-out: Maximal Response to L-Quis",37 ± 4%
same,mGluR5 response initiated by L-Quis,mGluR5 [5]; 0 mM Ca^2+ bath solution,almost could not initiate any mGluR5 response; also recorded: hardly showed any response
same,Percentage of cells with L-Quis-triggered response,mGluR5 [5]; absence of extracellular Ca^2+ addition,less than 20%
same,Percentage of cells with L-Quis-triggered response,"mGluR5 [5]; with addition of extracellular Ca^2+, 5 nM L-Quis",more than 60%
same,Emax,mGluR1α E325I; [Ca^2+]o 0 mM,60 ± 8%
same,Emax,mGluR1α E325I; [Ca^2+]o 1.8 mM,88 ± 8%
same,Emax,mGluR1α D322I; [Ca^2+]o 0 mM,80 ± 16%
same,Emax,mGluR1α D322I; [Ca^2+]o 1.8 mM,96 ± 21%
same,Affinity (pIC50),mGluR5 [1],7.5 pIC50
Cc1cc(C(=O)O)ccc1[C@H](N)C(=O)O [LY367385],Affinity (pIC50),mGluR1 [3],5.1 pIC50
same,Affinity (pKi),mGluR1 [2],5.9 pKi
COc1ccc(Nc2ncnc3ccc(OC)cc23)cc1 [LY456236],Affinity (pIC50),mGluR1 [3],6.9 pIC50
Cc1nc(C#Cc2cccc(C#N)c2)cs1 [MTEB],Affinity (pIC50),mGluR5 [4],8.7 pIC50
O=C(NC12CC3CC(CC(C3)C1)C2)c1cnc2ccccc2n1 [NPS2390],Affinity (pKi),mGluR1 [2],8.9 pKi
O=C(Cc1ccccc1)c1ccc2nc3c(cc2c1)CCCO3 [R214127],Affinity (pIC50),mGluR1 [3],8.9 pIC50
same,Affinity (pKi),mGluR1 [2],8.9 pKi
CCOC(=O)NC(=O)C(c1ccccc1)c1ccccc1 [Ro01-6128],Affinity (pKi),mGluR1 [2],7.5-7.7 pKi
Cc1ccc(S(=O)(=O)N2CCC[C@H]2c2ccc(F)cc2)cc1 [Ro67-7476],Affinity (pKi),mGluR1 [2],7.5-7.9 pKi
"CCCCOC(=O)NC(=O)C1c2ccccc2Oc2ccccc21 [Ro 67-4853, (9H-xanthene-9-carbonyl) carbamic acid butyl ester]",Max. Res. to Ro 67-4853,WT mGluR1α; [Ca^2+]o 0.5 mM,50 ± 8
same,EC50,"WT mGluR1α; [Ca^2+]o 0.5 mM, pre-incubated with 0.5 mM Ca^2+ and 5 nM Ro 67-4853",20.7 nM
same,Max. Res. to Ro 67-4853,WT mGluR1α; [Ca^2+]o 1.8 mM,59 ± 4
same,EC50,WT mGluR1α; [Ca^2+]o 1.8 mM,10 nM
same,Stimulation of mGluR5 (intracellular Ca^2+ oscillation),"mGluR5 [5]; 0.5 mM Ca^2+, 5 nM",could lead to the stimulation of mGluR5; also recorded: caused high frequency Ca^2+ oscillation
same,Stimulation of mGluR5 (intracellular Ca^2+ response),"mGluR5 [5]; no Ca^2+ in the bath solution, 5 to 100 nM",no intracellular Ca^2+ response was observed; also recorded: could not stimulate mGluR5
same,Affinity (pKi),mGluR1 [2],5.1 pKi
Cc1ccc(O)c(N=Nc2ccccc2)n1 [SIB-1757],Affinity (pIC50),mGluR5 [4],6.0-6.4 pIC50
Cc1cccc(/C=C/c2ccccc2)n1 [SIB-1893],Affinity (pIC50),mGluR5 [4],5.9-6.5 pIC50
O=C(Nc1cc(-c2ccccc2)nn1-c1ccccc1F)c1ccc([N+](=O)[O-])cc1 [VU-1545],Affinity (pEC50),mGluR5 [4],8 pEC50
Cc1c(C(=O)N(C)C2CCCCC2)sc2nc3ccc(N)cc3n12 [YM298198],Affinity (pIC50),mGluR1 [2],7.8 pIC50
CN1CC(=O)NC1=NC(=O)Nc1cccc(Cl)c1 [fenobam],Affinity (pIC50),mGluR5 [4],7.2 pIC50
N[C@H](C(=O)O)c1cc(O)no1 [ibotenate],Affinity (pIC50),mGluR5 [1],5.7 pIC50
same,Affinity (pKi),mGluR1 [2],5.9-6.4 pKi
